Data reported in patent US6653327B2, “Cross-regulin composition of tumeric-derived tetrahydrocurcuminoids for skin lightening and protection against UVB rays” (Sabinsa Corporation, priority 1999, dated 2003).

Columns and labels:
[1] = system: UVB-induced sunburn cells and p21 protein in epidermis; test: UVB-induced formation of sunburn cells and p21 protein levels in epidermis; assay type: in vivo, SKH-1 mice; settings: 8 hours after UVB
Description: Female Sencar mice (5 mice per group) were treated topically with 100 ul acetone or inhibitor in acetone at 5 min before a single dose of UVB (60 mJ/cm2) irradiation. The mice were killed 8 hours after UVB irradiation, and the skin biopsies were evaluated for sunburn cells and p21 protein.

TPA-induced ear edema = TPA-induced ear edema in mice (ear punch weight); assay type: in vivo, Female CF-1 mice; settings: 5 hours; for Wg/punch: mean SE
Description: Applicants have postulated that the crossregulin composition of the invention is an optimal composition for protecting and preserving healthy living cells and for preventing cytoskeletons of the healthy living cells from being damaged by TPA and TPA-like tumor promoters. In an experiment conducted in vivo, the ear skin of Female CF-1 mice was treated with either 20 microliters acetone, TPA in acetone or TPA with Tetrahydrocurcuminoids of the invention [THC1], known Tetrahydrocurcuminoids [THC2] and known pure (synthetic) Tetrahydrocurcumin [THC3].
Five hours later the mice were sacrificed and ear punches were weighted (the higher the weight, score the more severe the inflammation of the treated ear-skin). Based on the weight score of the ear punches, the percent of inflammation inhibition was calculated. Protection against inflammation in decreasing order was furnished by THC1 of the invention, followed by THC2 of the prior art, and finally followed by THC3. […] Prior art, as exemplified by the research data, cannot accomplish inhibition of the TPA induced ear edema above 80%. More than 80% inhibition of TPA-induced ear edema is necessary to prevent crosslinking of proteins which could trigger skin cancer. Therefore crossregulin action is not an inherent part of just any composition of THCs, but it is a specific composition that affords inhibition of the TPA mechanism by more than 80%.

[2] = 10 uM topical 5 min before UVB (60 mJ/cm2)
[3] = 20 uM topical 5 min before UVB (60 mJ/cm2)

| Structure (SMILES) | % p21 [1, 2] [%] | Number of positive cells per 1 cm slide (p21) [1, 2] | Number of sunburn cells per 1 cm slide [1, 2] | Percent Of Sunburn cells [1, 2] | % p21 [1, 3] [%] | Number of positive cells per 1 cm slide (p21) [1, 3] | Number of sunburn cells per 1 cm slide [1, 3] | Percent Of Sunburn cells [1, 3] | Wg/punch (TPA-induced ear edema; dose 0.36 mg topical with TPA (1 nmol) in acetone on both ears) | % inhibition of TPA-induced ear edema (TPA-induced ear edema; dose 0.36 mg topical with TPA (1 nmol)) [%] | Wg/punch (TPA-induced ear edema; dose 0.12 topical with TPA (1 nmol) in acetone on both ears) | % inhibition of TPA-induced ear edema (TPA-induced ear edema; dose 0.12 topical with TPA (1 nmol)) [%] |
| --- | --- | --- | --- | --- | --- | --- | --- | --- | --- | --- | --- | --- |
| O=C(CC(=O)c1ccccc1)c1ccccc1 [DBM, dibenzoylmethane] | 1.2 | 33.5 ± 7.49 | 13.2 ± 5.35 | 1.2 | 2.2 | 60.6 ± 12.9 | 8.6 ± 1.78 | 0.9 | – | – | – | – |
| COc1cc(CCC(=O)CC(=O)CCc2ccc(O)c(OC)c2)ccc1O [THC3, tetrahydrocurcumin] | – | – | – | – | – | – | – | – | 8.1 ± 0.3 | 77.2 | 7.8 ± 0.3 | 81.0 |
